Reference: patent publication US20050014215A1, “Method and medium for the detecting/identifying microorganisms with esterase and/or r osidase and/or peptidase and/or sulfatase and/or phosphatase activity” (priority 2000, published 2005)

Assays:
[1] = tested on: Listeria monocytogenes 23; experiment: Colony coloration on fresh and stored media, Example 10 (6-chloro-3-indolyl-β-N-acetylglucosaminide, Columbia); format: cell-based; set-up: key to intensity of coloration (arbitrary scale): 0: no activity; 0.1: trace of coloration; 0.5: very pale coloration; 1: distinct coloration of low intensity; 2: clear coloration of medium intensity; 3: intense coloration; 4: very intense coloration; —: absence of coloration or intensity; key to color: M: magenta; —: colorless
Method: (§1) Two stock solutions of substrate were prepared, one having a concentration of 50 g/l in DMF and the other having a concentration of 50 g/l in a mixture of DMF (40%) and Tween® 20 (60%). A volume corresponding to a final concentration of 175 mg/l of substrate was then added to a supercooled gelled medium, namely Columbia medium not supplemented with blood. […] After three weeks, six weeks, nine weeks and twelve weeks, two media like those described above were prepared for immediate use.
(§2) Microorganisms originating from the Applicant's collection were inoculated from a 0.5 McFarland suspension, by isolation in three quadrants, onto the two media prepared for immediate use and the two media stored at +4° C. The dishes were incubated at 37° C. for 48 hours. The colonies formed were examined visually after 24 and 48 hours of incubation. The coloration of these colonies and the intensity of this coloration were noted.

[2] = tested on: Listeria innocua 36; experiment: as above; format: cell-based; set-up: key to intensity of coloration (arbitrary scale): 0: no activity; 0.1: trace of coloration; 0.5: very pale coloration; 1: distinct coloration of low intensity; 2: clear coloration of medium intensity; 3: intense coloration; 4: very intense coloration; —: absence of coloration or intensity; key to color: M: magenta; —: colorless
Method: as §1, §2

[3] = IT 24 h, fresh medium, DMF Tween 20, 6-week comparison
[4] = IT 24 h, fresh medium, DMF Tween 20, 9-week comparison
[5] = IT 24 h, fresh medium, DMF Tween 20, 12-week comparison
[6] = IT 24 h, fresh medium, DMF, 6-week comparison
[7] = IT 24 h, fresh medium, DMF, 9-week comparison
[8] = IT 24 h, fresh medium, DMF, 12-week comparison
[9] = IT 24 h, medium stored for 6 weeks at +4° C., DMF
[10] = IT 24 h, medium stored for 6 weeks at +4° C., DMF Tween 20
[11] = IT 24 h, medium stored for 9 weeks at +4° C., DMF
[12] = IT 24 h, medium stored for 9 weeks at +4° C., DMF Tween 20
[13] = IT 24 h, medium stored for 12 weeks at +4° C., DMF
[14] = IT 24 h, medium stored for 12 weeks at +4° C., DMF Tween 20
[15] = IT 48 h, fresh medium, DMF Tween 20, 6-week comparison
[16] = IT 48 h, fresh medium, DMF Tween 20, 9-week comparison
[17] = IT 48 h, fresh medium, DMF Tween 20, 12-week comparison
[18] = IT 48 h, fresh medium, DMF, 6-week comparison
[19] = IT 48 h, fresh medium, DMF, 9-week comparison
[20] = IT 48 h, fresh medium, DMF, 12-week comparison
[21] = IT 48 h, medium stored for 6 weeks at +4° C., DMF
[22] = IT 48 h, medium stored for 6 weeks at +4° C., DMF Tween 20
[23] = IT 48 h, medium stored for 9 weeks at +4° C., DMF
[24] = IT 48 h, medium stored for 9 weeks at +4° C., DMF Tween 20
[25] = IT 48 h, medium stored for 12 weeks at +4° C., DMF
[26] = IT 48 h, medium stored for 12 weeks at +4° C., DMF Tween 20

CC(=O)N[C@H]1[C@H](Oc2c[nH]c3cc(Cl)ccc23)O[C@H](CO)[C@@H](O)[C@@H]1O
color [1, 3]: M
intensity of coloration (arbitrary scale) [1, 3]: 2
color [1, 4]: M
intensity of coloration (arbitrary scale) [1, 4]: 2
color [1, 5]: M
intensity of coloration (arbitrary scale) [1, 5]: 2
color [1, 6]: M
intensity of coloration (arbitrary scale) [1, 6]: 2
color [1, 7]: M
intensity of coloration (arbitrary scale) [1, 7]: 2
color [1, 8]: M
intensity of coloration (arbitrary scale) [1, 8]: 2
color [1, 9]: M
intensity of coloration (arbitrary scale) [1, 9]: 1
color [1, 10]: M
intensity of coloration (arbitrary scale) [1, 10]: 2
color [1, 11]: M
intensity of coloration (arbitrary scale) [1, 11]: 0.5
color [1, 12]: M
intensity of coloration (arbitrary scale) [1, 12]: 1
color [1, 13]: M
color [1, 14]: M
intensity of coloration (arbitrary scale) [1, 14]: 1
color [1, 15]: M
intensity of coloration (arbitrary scale) [1, 15]: 3
color [1, 16]: M
intensity of coloration (arbitrary scale) [1, 16]: 3
color [1, 17]: M
intensity of coloration (arbitrary scale) [1, 17]: 3
color [1, 18]: M
intensity of coloration (arbitrary scale) [1, 18]: 3
color [1, 19]: M
intensity of coloration (arbitrary scale) [1, 19]: 3
color [1, 20]: M
intensity of coloration (arbitrary scale) [1, 20]: 3
color [1, 21]: M
intensity of coloration (arbitrary scale) [1, 21]: 2
color [1, 22]: M
intensity of coloration (arbitrary scale) [1, 22]: 3
color [1, 23]: M
intensity of coloration (arbitrary scale) [1, 23]: 0.5
color [1, 24]: M
intensity of coloration (arbitrary scale) [1, 24]: 2
color [1, 25]: M
color [1, 26]: M
intensity of coloration (arbitrary scale) [1, 26]: 2
color [2, 3]: M
intensity of coloration (arbitrary scale) [2, 3]: 2
color [2, 4]: M
intensity of coloration (arbitrary scale) [2, 4]: 2
color [2, 5]: M
intensity of coloration (arbitrary scale) [2, 5]: 2
color [2, 6]: M
intensity of coloration (arbitrary scale) [2, 6]: 2
color [2, 7]: M
intensity of coloration (arbitrary scale) [2, 7]: 2
color [2, 8]: M
intensity of coloration (arbitrary scale) [2, 8]: 2
color [2, 9]: M
intensity of coloration (arbitrary scale) [2, 9]: 1
color [2, 10]: M
intensity of coloration (arbitrary scale) [2, 10]: 2
color [2, 11]: M
intensity of coloration (arbitrary scale) [2, 11]: 0.5
color [2, 12]: M
intensity of coloration (arbitrary scale) [2, 12]: 1.5
color [2, 13]: M
color [2, 14]: M
intensity of coloration (arbitrary scale) [2, 14]: 1
color [2, 15]: M
intensity of coloration (arbitrary scale) [2, 15]: 3
color [2, 16]: M
intensity of coloration (arbitrary scale) [2, 16]: 3
color [2, 17]: M
intensity of coloration (arbitrary scale) [2, 17]: 3
color [2, 18]: M
intensity of coloration (arbitrary scale) [2, 18]: 3
color [2, 19]: M
intensity of coloration (arbitrary scale) [2, 19]: 3
color [2, 20]: M
intensity of coloration (arbitrary scale) [2, 20]: 3
color [2, 21]: M
intensity of coloration (arbitrary scale) [2, 21]: 2
color [2, 22]: M
intensity of coloration (arbitrary scale) [2, 22]: 3
color [2, 23]: M
intensity of coloration (arbitrary scale) [2, 23]: 1
color [2, 24]: M
intensity of coloration (arbitrary scale) [2, 24]: 2.5
color [2, 25]: M
intensity of coloration (arbitrary scale) [2, 25]: 0.5
color [2, 26]: M
intensity of coloration (arbitrary scale) [2, 26]: 2.5
